From BindingDB's records for patent US9487490 (Merck Sharp & Dohme Corp, 2016) come the findings set out here.

This experiment addresses T1, Isoform 2 of Nuclear receptor ROR-gamma (RORgT) (Homo sapiens, UniProt P51449).
T1 sequence (P51449 whole entry): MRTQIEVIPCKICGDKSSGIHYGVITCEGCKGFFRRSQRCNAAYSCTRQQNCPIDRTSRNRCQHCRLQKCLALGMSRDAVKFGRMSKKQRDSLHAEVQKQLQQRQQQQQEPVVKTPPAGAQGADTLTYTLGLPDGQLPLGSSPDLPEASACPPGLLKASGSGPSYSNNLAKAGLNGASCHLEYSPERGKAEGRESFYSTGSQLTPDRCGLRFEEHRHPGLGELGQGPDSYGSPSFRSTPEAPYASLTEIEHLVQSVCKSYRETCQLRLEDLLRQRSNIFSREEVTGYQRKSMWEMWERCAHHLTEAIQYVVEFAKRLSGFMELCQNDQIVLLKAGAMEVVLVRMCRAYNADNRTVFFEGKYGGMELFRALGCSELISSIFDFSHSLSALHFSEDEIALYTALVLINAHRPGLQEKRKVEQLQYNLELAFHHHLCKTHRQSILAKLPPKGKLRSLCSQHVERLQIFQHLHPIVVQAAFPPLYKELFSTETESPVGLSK
The experiment in a line: TR-FRET Assay. The note with it: pH 7; 4 °C. Here is the method:
To identify novel antagonists of RORgammaT, an assay was developed which employs the interaction of RORgammaT with its co-activator peptide SRC1_2. […] The RORγ-LBD protein was purified by glutathione sepharose chromatography. […] The mixture was then diluted in assay buffer (50 mM Tris pH 7.0, 50 mM KCl, 1 mM EDTA, 0.1 mM DTT) to obtain RORγ-LBD final concentration of 3 nM in 384-well assay plate. Compounds to be tested were injected to the assay plate using Acoustic Droplet Ejection technology by Echo 550 liquid handler (Labcyte, Calif.).

Take `CC1CC(c2nn(C(=O)c3c(Cl)cccc3C(F)(F)F)c3cccc(F)c23)=CC(O)C1C(=O)O` (stereo unspecified) [US9487490, 6C]: the midpoint of inhibition, the IC50, lay at 5 nM.
